Source: US20100041089A1, “IMPROVED METHOD FOR DETECTING CHEMICAL […]” (priority 2006, published 2010)

Test system: yeast genes (expressed mRNA)
Experiment: DNA chip measurement of expressed mRNA of yeast genes after culture with a toxic chemical substance
Assay type: cell-based, Saccharomyces cerevisiae S288C
Conditions: for level of expressed mRNA in the presence of chemical substance / level in the absence of chemical substance: cultured two hours with the chemical substance; for The level of expressed mRNA in the presence of chemical substance/The level of expressed mRNA in the absence of chemical substance: cultured two hours with substance
Method in brief: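 Expression is given as treated/untreated fluorescence ratio on a whole-genome yeast DNA chip, a ratio of two or more being significant. Log-phase S288C cultures in YPD at 25 °C received the chemical for 2 h at a dose that slows growth without killing. mRNA was reverse-transcribed with Cy3- or Cy5-dUTP.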

Na2As [(1)]
The level of expressed mRNA in the presence of chemical substance/The level of expressed mRNA in the absence of chemical substance, yeast gene YBR036C (gene YBR036C, Metabolism protein genes, DNA chip fluorescence ratio): 0.8
The level of expressed mRNA in the presence of chemical substance/The level of expressed mRNA in the absence of chemical substance, yeast gene YBR298C (gene YBR298C, Metabolism protein genes, DNA chip fluorescence ratio): 1.1
The level of expressed mRNA in the presence of chemical substance/The level of expressed mRNA in the absence of chemical substance, yeast gene YDL067C (gene YDL067C (mitochondria-located protein gene), yeast cultured two hours with chemical substance, DNA chip fluorescence ratio to control): 1.8
The level of expressed mRNA in the presence of chemical substance/The level of expressed mRNA in the absence of chemical substance, yeast gene YDL078C (gene YDL078C, Metabolism protein genes, DNA chip fluorescence ratio): 0.7
The level of expressed mRNA in the presence of chemical substance/The level of expressed mRNA in the absence of chemical substance, yeast gene YDL215C (gene YDL215C, Metabolism protein genes, DNA chip fluorescence ratio): 1.0
The level of expressed mRNA in the presence of chemical substance/The level of expressed mRNA in the absence of chemical substance, yeast gene YDR079W (gene YDR079W (mitochondria-located protein gene), yeast cultured two hours with chemical substance, DNA chip fluorescence ratio to control): 1.3
The level of expressed mRNA in the presence of chemical substance/The level of expressed mRNA in the absence of chemical substance, yeast gene YDR297W (gene YDR297W, Metabolism protein genes, DNA chip fluorescence ratio): 1.5
The level of expressed mRNA in the presence of chemical substance/The level of expressed mRNA in the absence of chemical substance, yeast gene YDR387C (gene YDR387C, Metabolism protein genes, DNA chip fluorescence ratio): 0.8
The level of expressed mRNA in the presence of chemical substance/The level of expressed mRNA in the absence of chemical substance, yeast gene YGL035C (gene YGL035C, Metabolism protein genes, DNA chip fluorescence ratio): 0.7
The level of expressed mRNA in the presence of chemical substance/The level of expressed mRNA in the absence of chemical substance, yeast gene YGR062C (gene YGR062C (mitochondria-located protein gene), yeast cultured two hours with chemical substance, DNA chip fluorescence ratio to control): 0.9
The level of expressed mRNA in the presence of chemical substance/The level of expressed mRNA in the absence of chemical substance, yeast gene YGR287C (gene YGR287C, Metabolism protein genes, DNA chip fluorescence ratio): 1.3
The level of expressed mRNA in the presence of chemical substance/The level of expressed mRNA in the absence of chemical substance, yeast gene YJL070C (gene YJL070C, Metabolism protein genes, DNA chip fluorescence ratio): 1.3
The level of expressed mRNA in the presence of chemical substance/The level of expressed mRNA in the absence of chemical substance, yeast gene YJL096W (gene YJL096W (mitochondria-located protein gene), yeast cultured two hours with chemical substance, DNA chip fluorescence ratio to control): 1.0
The level of expressed mRNA in the presence of chemical substance/The level of expressed mRNA in the absence of chemical substance, yeast gene YJL180C (gene YJL180C (mitochondria-located protein gene), yeast cultured two hours with chemical substance, DNA chip fluorescence ratio to control): 0.9
The level of expressed mRNA in the presence of chemical substance/The level of expressed mRNA in the absence of chemical substance, yeast gene YKR009C (gene YKR009C, Metabolism protein genes, DNA chip fluorescence ratio): 1.0
The level of expressed mRNA in the presence of chemical substance/The level of expressed mRNA in the absence of chemical substance, yeast gene YLR295C (gene YLR295C (mitochondria-located protein gene), yeast cultured two hours with chemical substance, DNA chip fluorescence ratio to control): 1.4
The level of expressed mRNA in the presence of chemical substance/The level of expressed mRNA in the absence of chemical substance, yeast gene YLR351C (gene YLR351C, Metabolism protein genes, DNA chip fluorescence ratio): 1.0
The level of expressed mRNA in the presence of chemical substance/The level of expressed mRNA in the absence of chemical substance, yeast gene YLR375W (gene YLR375W, Metabolism protein genes, DNA chip fluorescence ratio): 0.9
The level of expressed mRNA in the presence of chemical substance/The level of expressed mRNA in the absence of chemical substance, yeast gene YMR023C (gene YMR023C (mitochondria-located protein gene), yeast cultured two hours with chemical substance, DNA chip fluorescence ratio to control): 1.4
The level of expressed mRNA in the presence of chemical substance/The level of expressed mRNA in the absence of chemical substance, yeast gene YMR267W (gene YMR267W (mitochondria-located protein gene), yeast cultured two hours with chemical substance, DNA chip fluorescence ratio to control): 0.8
The level of expressed mRNA in the presence of chemical substance/The level of expressed mRNA in the absence of chemical substance, yeast gene YMR267W (gene YMR267W, Metabolism protein genes, DNA chip fluorescence ratio): 0.8
The level of expressed mRNA in the presence of chemical substance/The level of expressed mRNA in the absence of chemical substance, yeast gene YMR278W (gene YMR278W, Metabolism protein genes, DNA chip fluorescence ratio): 0.7
The level of expressed mRNA in the presence of chemical substance/The level of expressed mRNA in the absence of chemical substance, yeast gene YMR293C (gene YMR293C, Metabolism protein genes, DNA chip fluorescence ratio): 0.9
The level of expressed mRNA in the presence of chemical substance/The level of expressed mRNA in the absence of chemical substance, yeast gene YNL073W (gene YNL073W (mitochondria-located protein gene), yeast cultured two hours with chemical substance, DNA chip fluorescence ratio to control): 0.8
The level of expressed mRNA in the presence of chemical substance/The level of expressed mRNA in the absence of chemical substance, yeast gene YNR072W (gene YNR072W, Metabolism protein genes, DNA chip fluorescence ratio): 1.1
The level of expressed mRNA in the presence of chemical substance/The level of expressed mRNA in the absence of chemical substance, yeast gene YOL096C (gene YOL096C, Metabolism protein genes, DNA chip fluorescence ratio): 1.1
The level of expressed mRNA in the presence of chemical substance/The level of expressed mRNA in the absence of chemical substance, yeast gene YOR180C (gene YOR180C, Metabolism protein genes, DNA chip fluorescence ratio): 0.8
The level of expressed mRNA in the presence of chemical substance/The level of expressed mRNA in the absence of chemical substance, yeast gene YOR316C (gene YOR316C (mitochondria-located protein gene), yeast cultured two hours with chemical substance, DNA chip fluorescence ratio to control): 0.7
The level of expressed mRNA in the presence of chemical substance/The level of expressed mRNA in the absence of chemical substance, yeast gene YOR363C (gene YOR363C, Metabolism protein genes, DNA chip fluorescence ratio): 0.8
The level of expressed mRNA in the presence of chemical substance/The level of expressed mRNA in the absence of chemical substance, yeast gene YPL040C (gene YPL040C (mitochondria-located protein gene), yeast cultured two hours with chemical substance, DNA chip fluorescence ratio to control): 1.1
The level of expressed mRNA in the presence of chemical substance/The level of expressed mRNA in the absence of chemical substance, yeast gene YPL134C (gene YPL134C (mitochondria-located protein gene), yeast cultured two hours with chemical substance, DNA chip fluorescence ratio to control): 1.5
The level of expressed mRNA in the presence of chemical substance/The level of expressed mRNA in the absence of chemical substance, yeast gene YPR184W (gene YPR184W, Metabolism protein genes, DNA chip fluorescence ratio): 1.2
level of expressed mRNA in the presence of chemical substance / level in the absence of chemical substance (yeast gene YAL018C): 2.0
The level of expressed mRNA in the presence of chemical substance/The level of expressed mRNA in the absence of chemical substance (yeast gene YAL053W): 0.9
level of expressed mRNA in the presence of chemical substance / level in the absence of chemical substance (yeast gene YAR047C): 1.1
level of expressed mRNA in the presence of chemical substance / level in the absence of chemical substance (yeast gene YAR064W): 2.1
level of expressed mRNA in the presence of chemical substance / level in the absence of chemical substance (yeast gene YBL044W): 0.9
The level of expressed mRNA in the presence of chemical substance/The level of expressed mRNA in the absence of chemical substance (yeast gene YBL048W): 2.0
The level of expressed mRNA in the presence of chemical substance/The level of expressed mRNA in the absence of chemical substance (yeast gene YBL107C): 1.4
level of expressed mRNA in the presence of chemical substance / level in the absence of chemical substance (yeast gene YBR012C): 2.5
level of expressed mRNA in the presence of chemical substance / level in the absence of chemical substance (yeast gene YBR066C): 1.9
level of expressed mRNA in the presence of chemical substance / level in the absence of chemical substance (yeast gene YBR124W): 0.9
level of expressed mRNA in the presence of chemical substance / level in the absence of chemical substance (yeast gene YBR162C): 0.6
level of expressed mRNA in the presence of chemical substance / level in the absence of chemical substance (yeast gene YBR287W): 1.7
level of expressed mRNA in the presence of chemical substance / level in the absence of chemical substance (yeast gene YCL056C): 1.3
level of expressed mRNA in the presence of chemical substance / level in the absence of chemical substance (yeast gene YCR007C): 2.2
level of expressed mRNA in the presence of chemical substance / level in the absence of chemical substance (yeast gene YDL046W): 1.2
The level of expressed mRNA in the presence of chemical substance/The level of expressed mRNA in the absence of chemical substance (yeast gene YDL072C): 1.3
The level of expressed mRNA in the presence of chemical substance/The level of expressed mRNA in the absence of chemical substance (yeast gene YDL204W): 1.4
The level of expressed mRNA in the presence of chemical substance/The level of expressed mRNA in the absence of chemical substance (yeast gene YDL222C): 0.9
level of expressed mRNA in the presence of chemical substance / level in the absence of chemical substance (yeast gene YDR090C): 0.9
level of expressed mRNA in the presence of chemical substance / level in the absence of chemical substance (yeast gene YDR128W): 0.6
